Results: patent US20060258692A1, “Quinazolinone compositions for regulation of gene expression related to pathological processes” (priority 2002, published 2006)

Experiments:
IGFBP-1 in HepG2 cells = experiment: IGFBP-1 gene expression and secretion in HepG2 cells, dose and time response
[1] = system: IGFBP-1 in rat primary hepatocytes; experiment: IGFBP-1 synthesis in rat primary hepatocytes (Western blot); assay type: cell-based
[2] = system: TAA-induced cirrhotic liver; experiment: Liver regeneration after 70% partial hepatectomy in TAA-induced cirrhotic rats
[3] = system: collagen α1(I) gene expression; conditions: skin fibroblasts in culture, incl. from scleroderma or cGVHD patients; cited from earlier work
HepG2 cells = experiment: HepG2 cell proliferation (cell number); conditions: 24 h, halofuginone at concentration that affect IGFBP-1 synthesis
[4] = system: rats with TAA-induced liver fibrosis
IGFBP-3 mRNA = experiment: Northern blot of liver biopsies with IGFBP-3 probe
[5] = system: PRL-1 and Apolipoprotein AIV; experiment: Northern blot validation of Atlas microarray results in liver biopsies; assay type: in vivo, rat; conditions: TAA vs TAA plus halofuginone
stellate cells (HSC-T6) = experiment: Stellate cell motility assay (phagokinetic tracks); conditions: conditioned medium of HepG2 treated with 50 nM halofuginone (contains IGFBP-1) added to HSC
[6] = system: rats insulted with dimethylnitrosamine (DMN) or thioacetamide (TAA); conditions: cited from earlier work
[7] = system: IGFBP-1 in HepG2, Huh-7, Hep3B, Det551, ROS and HSC cells; experiment: IGFBP-1 synthesis in various cell types (Northern and Western blot); assay type: cell-based, human; rat; conditions: 50 nM halofuginone, serum-free medium, hepatocyte lines vs fibroblasts, osteoblasts
IGFBP-1 gene expression = experiment: Northern blot and in situ hybridization of liver biopsies with IGFBP-1 probe

## C[C@@H]1C[C@@H]([C@H](O)CC2CC(=O)NC(=O)C2)C(=O)[C@@H](C)C1 [cyclohexamide]
IGFBP-1 in HepG2 cells; 10 μg/ml cyclohexamide with 50 nM halofuginone, 24 h
  effect on halofuginone-dependent increase in IGFBP-1 gene expression: annulled

## insulin: insulin, comparator incubated with rat primary hepatocytes
[1]; insulin, 24 h (10 nM, 100 nM elsewhere in the source)
  IGFBP-1 synthesis (Western blot): reduction in IGFBP-1 synthesis

## O=C(CC1NCCC[C@H]1O)Cn1cnc2cc(Br)c(Cl)cc2c1=O (stereo in doubt) [halofuginone, 7-bromo-6-chloro-3-[3-(3-hydroxy-2-piperidinyl)-2-oxopropyl]-4(3H)-quinazolinone]
[2]; eight weeks of halofuginone after TAA, 48 hours after 70% PHx, untreated animals 18.8±2.9
  PCNA labeling index: 31.4±6.4
[2]; eight weeks of halofuginone in diet after TAA, 48 hours after 70% PHx, control food group 13.7±4.5, p<0.05
  restituted liver mass: 24.2±5.7%
[2]; halofuginone treatment of TAA cirrhotic rats
  liver Ishak staging: decrease
[3]
  collagen α1(I) gene expression and collagen production: attenuated
HepG2 cells
  cell proliferation (cell number): significant reduction in cell proliferation
[4]; TAA 200 mg/kg twice weekly plus halofuginone 5 ppm in the diet, 4 weeks, TAA alone grade 5-6
  Ishak staging of fibrosis (grade): 1-2
[4]; TAA plus halofuginone given orally (5 ppm in diet), 4 weeks, immunohistochemistry
  αSMA-positive (activated) stellate cells: only traces
[4]; TAA plus halofuginone, 4 weeks
  collagen level (Sirius red): low levels of collagen
[4]; TAA plus halofuginone, 4 weeks, compared with TAA-treated rats
  level of TIMP-2: reduced
[4]; TAA plus halofuginone, 4 weeks, in situ hybridization
  collagen α1(I) gene expression by remaining stellate cells: low levels
[4]; rat, in vivo
  ECM, collagen, αSMA stellate cells, collagen α1(I) expression, TIMP-2: No changes
IGFBP-3 mRNA; after 1 week of treatment, any of the groups
  IGFBP-3 mRNA levels: No changes
IGFBP-3 mRNA; after 2 and 4 weeks
  effect on TAA-induced increase in IGFBP-3 level: partially prevented
IGFBP-3 mRNA; halofuginone alone, any time-points examined
  IGFBP-3 mRNA levels: no effect
IGFBP-1 in HepG2 cells; 10 nM halofuginone, 24 h, further increase at higher concentrations, no expression without halofuginone
  IGFBP-1 gene expression (Northern blot): increased IGFBP-1 gene expression
IGFBP-1 in HepG2 cells; 50 nM halofuginone
  time after halofuginone treatment at which increased IGFBP-1 gene expression was observed: 6 h
  time after which IGFBP-1 content in the conditioned media increased: 10 to 15 h
IGFBP-1 in HepG2 cells; 50 nM halofuginone for 11 h, washed, fresh medium for additional 13 h, compared with untreated cells
  IGFBP-1 in conditioned medium after halofuginone removal: high levels of IGFBP-1
IGFBP-1 in HepG2 cells; 50 nM halofuginone, medium replaced, IGFBP-1 detected 23 h later
  incubation time needed for increase in IGFBP-1 secretion: one hour of incubation with halofuginone was sufficient
IGFBP-1 in HepG2 cells; HepG2, 24 h
  concentration at which an increase in the level of IGFBP-1 in conditioned medium starts (Western blot): ≥ 50 nM
[5]
  PRL-1 and Apolipoprotein AIV expression by Northern blotting: confirmed the Atlas microarray findings
Stellate cells (HSC-T6)
  HSC cell motility (track area): significant inhibition in cell motility
[6]; given to rats with established fibrosis
  fibrotic condition: almost complete resolution
[6]; rats insulted with DMN or TAA
  HSC activation, increase in collagen α1(I) gene expression and collagen deposition: prevent HSC activation and abolish the increase in collagen α1(I) gene expression and collagen deposition
[1]; halofuginone 1 nM, 24 h
  IGFBP-1 synthesis (Western blot): increased the synthesis of IGFBP-1
[7]
  cell types responding with IGFBP-1 gene expression and synthesis: Only cells of the hepatocyte origin demonstrated increased IGFBP-1 gene expression and synthesis
IGFBP-1 gene expression; after 2 and 4 weeks of treatment
  effect on TAA-induced down-regulation of IGFBP-1 gene expression (Northern blot): prevented the TAA-induced down-regulation
IGFBP-1 gene expression; after one week of TAA treatment
  effect on TAA-induced reduction in IGFBP-1 gene expression (Northern blot): without any effect
IGFBP-1 gene expression; halofuginone alone
  level of IGFBP-1 mRNA (Northern blot): slight effect
IGFBP-1 gene expression; liver sections after 4 weeks, TAA plus halofuginone
  IGFBP-1 gene expression by in situ hybridization, TAA-induced decrease: prevented
